From patent publication US6589992B2, “Inhibiting collagen-induced platelet aggregation” (Parker Hughes Institute, priority 1999, dated 2003)

Test system: ICR mice
Test: Thromboplastin-induced fatal thromboembolism in mice
Format: in vivo
Conditions: N=10
Protocol: The mice were challenged with 25 mg/kg thromboplastin (Sigma, St. Louis, Mo.) via a bolus i.v. injection in to the tail vein as previously described (Sato et al., 1998). At the time of thromboembolism-related death, after the thromboplastin injection or elective sacrifice at 48 hours using ketamine/xylazine, all mice were perfused with PBS followed by 4% phosphate buffered formalin. PBS and formalin were pumped through the left ventricle of the heart and allowed to exit through a 3 mm incision through the anterior wall of the right ventricle.

Which results are given for `CC(=O)CC(c1ccccc1)c1c(O)c2ccccc2oc1=O` (centres unmarked) [warfarin, reference compound]?
probability of event-free survival after thromboplastin challenge (warfarin 3 mg/kg i.p. 18 hours prior): 10±9%; median survival time (warfarin 3 mg/kg): 5.3 min
